Columns and labels:
[1] = Haldol in urine samples before hydrolysis; format: in vivo, human; conditions: Without Hydrolysis; summary of Table 1, N 151
[2] = Haldol in urine samples after hydrolysis with a betaglucuronidase enzyme; format: in vivo, human
[3] = With hydrolysis, summary of Table 1, N 151

With O=C(CCCN1CCC(O)(c2ccc(Cl)cc2)CC1)c1ccc(F)cc1 [Haldol, Haloperidol] the Avg [1] was 30.7, the Max [1] was 414.0 and the Min [1] was 0.0. It also gave an Avg [2, 3] of 982.5, a Max [2, 3] of 16805.6 and a Min [2, 3] of 0.0. For the same compound, the “amount of Haldol determined in urine samples post hydrolysis versus before” value ([2]; human urine, betaglucuronidase hydrolysis) was “increased post hydrolysis”.

Source: patent US20170029866A1 (Ameritox, Ltd, priority 2015, published 2017)
